Data on 21 compounds can be found in ChEMBL document CHEMBL1800012, “Optimisation of a novel series of selective CNS penetrant CB(2) agonists” (Bioorg Med Chem Lett, 2011).

Some results are limits rather than exact numbers.

The target in data set [1] is T1, Cannabinoid receptor 2 (Homo sapiens, UniProt P34972). Put plainly: Agonist activity at human recombinant CB2 receptor expressed in CHO cells assessed as inhibition forskolin-induced cAMP release. It is filed as functional, cell-based.
Data set [2] is described as follows: Intrinsic clearance in human liver microsomes. It is filed as ADME, Microsome.
Data set [3] is described as follows: Intrinsic clearance in rat liver microsomes. It is filed as ADME, Microsome.
Data set [4] in a line: Clearance in rat at 1 mg/kg, iv. The settings on record: in vivo. Details: dose 1 mg/kg, route intravenous. In kind it is ADME, organism-based.
The nature of data set [5]: Volume of distribution in rat at 1 mg/kg, iv. In kind it is ADME, organism-based. On the set-up: dose 1 mg/kg, route intravenous. The settings on record: in vivo.
Data set [6] can be described thus: Half life in rat at 1 mg/kg, iv. It is filed as ADME, organism-based. Details: dose 1 mg/kg, route intravenous. The settings on record: in vivo.
Data set [7] is described as follows: Ratio of unbound drug level in brain to plasma in rat. The settings on record: brain and plasma, read-out: BPR. It is filed as ADME, organism-based.
For data set [8], the target named is T1, Cannabinoid receptor 2. Put plainly: Agonist activity at human recombinant CB2 receptor expressed in CHO cells assessed as inhibition forskolin-induced cAMP release relative to control. In kind it is functional, cell-based.
Data set [9] addresses T2, Cannabinoid receptor 1 (Homo sapiens, UniProt P21554). Put plainly: Binding affinity at human CB1 receptor.
The nature of data set [10]: Oral bioavailability in rat. In kind it is ADME, organism-based. The settings on record: in vivo.
For a further data set, the species on record is Rattus norvegicus. Briefly: Ratio of unbound drug level in brain to plasma in rat relative to control. The settings on record: in vivo. It is filed as ADME, organism-based.
For data set [11], the target named is T2, Cannabinoid receptor 1. Briefly: Agonist activity at human CB1 receptor by functional assay.

T2 sequence (P21554 whole entry): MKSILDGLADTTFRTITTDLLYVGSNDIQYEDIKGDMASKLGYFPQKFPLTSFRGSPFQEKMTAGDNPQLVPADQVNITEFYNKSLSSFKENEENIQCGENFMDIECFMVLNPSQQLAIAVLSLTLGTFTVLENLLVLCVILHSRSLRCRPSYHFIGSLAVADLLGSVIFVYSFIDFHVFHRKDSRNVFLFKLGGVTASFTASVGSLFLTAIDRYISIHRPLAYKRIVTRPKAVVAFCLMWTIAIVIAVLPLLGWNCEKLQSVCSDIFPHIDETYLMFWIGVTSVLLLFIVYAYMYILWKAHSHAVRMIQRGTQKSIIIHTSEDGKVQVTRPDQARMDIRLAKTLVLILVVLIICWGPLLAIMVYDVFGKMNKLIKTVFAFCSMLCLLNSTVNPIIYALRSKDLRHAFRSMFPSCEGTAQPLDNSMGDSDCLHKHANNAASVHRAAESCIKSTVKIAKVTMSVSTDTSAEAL
T1 sequence (P34972 whole entry): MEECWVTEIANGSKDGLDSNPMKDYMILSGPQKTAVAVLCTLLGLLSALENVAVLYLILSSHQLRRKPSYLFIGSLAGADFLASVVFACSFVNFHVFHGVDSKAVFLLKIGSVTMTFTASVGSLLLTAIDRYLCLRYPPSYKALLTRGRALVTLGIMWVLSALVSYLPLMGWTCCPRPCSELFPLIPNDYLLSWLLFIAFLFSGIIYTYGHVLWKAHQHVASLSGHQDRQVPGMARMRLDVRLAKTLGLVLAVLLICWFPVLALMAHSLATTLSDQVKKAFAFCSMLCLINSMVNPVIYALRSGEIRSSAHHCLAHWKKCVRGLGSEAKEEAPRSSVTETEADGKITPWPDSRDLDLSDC

`CC(C)(C)Cc1nc2cc(S(=O)(=O)C(C)(C)CO)ccc2n1CC1CC1`: the EC50 on Cannabinoid receptor 2 [1] turned out to be 1.2 nM. Moreover, the microsomal CLint is less than 7 µL/min/mg in [2] and 54 µL/min/mg in data set [3].
`CN(C)CCS(=O)(=O)c1ccc2c(c1)nc(CC(C)(C)C)n2CC1CC1`: on Cannabinoid receptor 2 [1], the EC50 was determined as 32 nM. Further, the results for the microsomal CLint in data set [2] and in data set [3] were 79 µL/min/mg and 170 µL/min/mg, respectively.
In the same order, the values of `CCS(=O)(=O)c1ccc2c(c1)nc(C1(C)CCCC1)n2CC1CC1` are 9.6 nM, 42 µL/min/mg and 106 µL/min/mg.
For the compound `CCS(=O)(=O)c1ccc2c(c1)nc(C(C)(C)C)n2C[C@@H]1CCCO1`, the EC50 at Cannabinoid receptor 2 [1] is 11 nM. Also, the intrinsic clearance (microsomal CLint) in [2] came out at 12 µL/min/mg; in [3], 17 µL/min/mg. The same compound showed a clearance in data set [4] of 27.1 mL/min/kg. In addition, the Vd in data set [5] worked out at 1 L/kg. Further, the half-life in data set [6] was 24 min. Moreover, the Kp uu in data set [7] turned out to be 1.
As for `CCS(=O)(=O)c1ccc2c(c1)nc(C1CCCC1)n2CC1CC1`, at Cannabinoid receptor 2 [1], the EC50 was determined as 25 nM. For the same compound, the microsomal CLint in data set [2] stood at 11 µL/min/mg; in data set [3], 106 µL/min/mg.
Take `CC(C)(C)Cc1nc2cc(S(=O)(=O)C(C)(C)C)ccc2n1CC1CC1`: at Cannabinoid receptor 2 [1], the EC50 worked out at 0.43 nM. In [2], this compound returned a microsomal CLint of 38 µL/min/mg.
Turning to `CCS(=O)(=O)c1ccc2c(c1)nc(C(C)C)n2CC1CC1`, the EC50 on Cannabinoid receptor 2 [1] stood at 132 nM.
With `CCS(=O)(=O)c1ccc2c(c1)nc(CC(C)(C)C)n2CC1CC1`, the EC50 at Cannabinoid receptor 2 [1] came out at 2.9 nM. Moreover, the results for the microsomal CLint in data set [2] and in data set [3] were 8.4 µL/min/mg and 38 µL/min/mg, respectively.
On to `CCS(=O)(=O)c1ccc2c(c1)nc(C(C)(C)C)n2C1CC1`, for which the EC50 at Cannabinoid receptor 2 [1] was 106 nM. Besides, the microsomal CLint in [2] was found to be 8 µL/min/mg; in data set [3], 8.5 µL/min/mg.
`CCS(=O)(=O)c1ccc2c(c1)nc(CC1CC1)n2CC1CC1`: the EC50 at Cannabinoid receptor 2 [1] was found to be 425 nM. For the same compound, the Emax on Cannabinoid receptor 2 [8] was 79%.
`CCS(=O)(=O)c1ccc2c(c1)nc(C1CCC1)n2CC1CC1`: on Cannabinoid receptor 2 [1], the EC50 was 82 nM. The microsomal CLint stood at 8 µL/min/mg in data set [2] and 33 µL/min/mg in [3].
On the same counts, the results for `CCS(=O)(=O)c1ccc2c(c1)nc(C(C)(C)C)n2CCN(C)C` are 39 nM, 8 µL/min/mg and 8.5 µL/min/mg.
Regarding `CN(C)CCn1c(CC(C)(C)C)nc2cc(S(=O)(=O)CC(C)(C)O)ccc21`, the EC50 on Cannabinoid receptor 2 [1] is 12 nM. The same compound registered a Ki on Cannabinoid receptor 1 [9] greater than 19.4 µM. For the same compound, the figures for the microsomal CLint in data set [2] and in data set [3] were less than 7 µL/min/mg and less than 11.2 µL/min/mg, respectively. The compound further had a bioavailability in data set [10] of 21%. In the data set listed under Rattus norvegicus, the BPR is less than 1%.
Turning to `CC(C)(C)Cc1nc2cc(S(=O)(=O)Cc3ccccc3)ccc2n1CC1CC1`, the EC50 at Cannabinoid receptor 2 [1] was 6.5 nM. Further, the intrinsic metabolic clearance (microsomal CLint) in [2] came out at 276 µL/min/mg; in [3], 369 µL/min/mg.
For `CCS(=O)(=O)c1ccc2c(c1)nc(C1(C)CC1)n2CC1CC1`, the EC50 at Cannabinoid receptor 2 [1] was determined as 51 nM. Besides, the microsomal CLint in data set [2] turned out to be 8 µL/min/mg; in data set [3], 11 µL/min/mg.
For `CCCc1nc2cc(S(=O)(=O)CC)ccc2n1CC1CC1`, on Cannabinoid receptor 2 [1], the EC50 was determined as 199 nM. Moreover, the values for the intrinsic clearance (microsomal CLint) in data set [2] and in [3] were 43 µL/min/mg and 34 µL/min/mg, respectively.
As to `CCS(=O)(=O)c1ccc2c(c1)nc(CCC(C)C)n2CC1CC1`, at Cannabinoid receptor 2 [1], the EC50 turned out to be 67 nM. Besides, on Cannabinoid receptor 2 [8], the Emax came to 58%.
Regarding `CCS(=O)(=O)c1ccc2c(c1)nc(C(C)(C)C)n2CC1CC1`, the EC50 on Cannabinoid receptor 1 [11] is greater than 10 nM; on Cannabinoid receptor 2 [1] it was 2.7 nM. Also, the Ki at Cannabinoid receptor 1 [9] was greater than 20 µM. For the same compound, the microsomal CLint in data set [2] was 9 µL/min/mg; in data set [3], 12 µL/min/mg. In data set [10], this compound had a bioavailability of 100%. In addition, the BPR in the data set listed under Rattus norvegicus came out at 30. In data set [4], this compound registered a clearance of 20 mL/min/kg. This compound also registered a Vd in [5] of 3.2 L/kg. For the same compound, in [6], the half-life was 114 min.
Take `CCS(=O)(=O)c1ccc2c(c1)nc(C(C)(C)C)n2CCOC(F)(F)F`: the EC50 at Cannabinoid receptor 2 [1] came to 5.3 nM. Also, the values for the microsomal CLint in data set [2] and in data set [3] were 7 µL/min/mg and 19 µL/min/mg, respectively.
`CC(C)S(=O)(=O)c1ccc2c(c1)nc(CC(C)(C)C)n2CC1CC1`: the EC50 on Cannabinoid receptor 2 [1] was determined as 3.2 nM. Further, on Cannabinoid receptor 1 [9], the Ki is greater than 10 µM. For the same compound, the values for the microsomal CLint in [2] and in data set [3] were 23 µL/min/mg and 144 µL/min/mg, respectively.
Consider `CC(C)(C)Cc1nc2cc(S(=O)(=O)CC(C)(C)O)ccc2n1CC1CC1`, for which, on Cannabinoid receptor 2 [1], the EC50 amounted to 3.1 nM. Besides, the values for the microsomal CLint in data set [2] and in [3] were less than 7 µL/min/mg and 244 µL/min/mg, respectively.
